Assay results from the supplement of paper PMC8671470.

system: KCL-22; assay: cell viability (% survival relative to DMSO control, bortezomib = 0%); higher = less cytotoxic; settings: 10 nM; 72 h
Method in brief: (§1)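 Percent survival figures are means of duplicate wells. They were obtained by CellTiter-Glo luminescence after 10 AML and 5 CML cell lines spent 72 h at 37 °C with 5% CO2 in 384-well plates with compounds at 1, 10, 100, 1000 or 10000 nM. Vehicle was set to 100% and a 10 µM positive control to 0%.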

Structure (SMILES) | cell viability [%]
CCCCCCCCCCCC(=O)c1c(O)c(C(=O)CCCCCCCCCCC)c(O)c(C2CC(c3ccc(O)cc3)Oc3cc(O)ccc32)c1O (stereo not given) | 113
NC(=O)c1cccc(-c2cccc(OC(=O)NC3CCCCC3)c2)c1 [URB-597] | 106
O=C1O[C@H]([C@@H](O)CO)C(O)=C1O [Vitamin C (ascorbate)] | 96.2

same assay, conditions: 100 nM; 72 h

Structure (SMILES) | cell viability [%]
O=C(O)C[C@@]1(O)C[C@@H](CCCCCCc2ccc(Cl)cc2Cl)OC1=O | 88.4
O=C(NCCCCCCNC(=O)ONC1=CCCCC1)ONC1=CCCCC1 | 115
O=C(C1CC1)N1CC[C@@H](C=C2NNC(=O)N2c2ccc(-c3ccc4occc4c3)cc2)C1 | 94.9
CCCCCCCCCCCC(=O)c1c(O)c(C(=O)CCCCCCCCCCC)c(O)c(C2CC(c3ccc(O)cc3)Oc3cc(O)ccc32)c1O (stereo not given) | 115
NC(=O)c1cccc(-c2cccc(OC(=O)NC3CCCCC3)c2)c1 [URB-597] | 104
O=C1O[C@H]([C@@H](O)CO)C(O)=C1O [Vitamin C (ascorbate)] | 97.7

same assay, conditions: 1000 nM; 72 h

Structure (SMILES) | cell viability [%]
O=C(O)C[C@@]1(O)C[C@@H](CCCCCCc2ccc(Cl)cc2Cl)OC1=O | 97.5
O=C(NCCCCCCNC(=O)ONC1=CCCCC1)ONC1=CCCCC1 | 102
O=C(C1CC1)N1CC[C@@H](C=C2NNC(=O)N2c2ccc(-c3ccc4occc4c3)cc2)C1 | 86.2
CCCCCCCCCCCC(=O)c1c(O)c(C(=O)CCCCCCCCCCC)c(O)c(C2CC(c3ccc(O)cc3)Oc3cc(O)ccc32)c1O (stereo not given) | 123
NC(=O)c1cccc(-c2cccc(OC(=O)NC3CCCCC3)c2)c1 [URB-597] | 98.2
O=C1O[C@H]([C@@H](O)CO)C(O)=C1O [Vitamin C (ascorbate)] | 88.1

same assay, conditions: 10000 nM; 72 h

Structure (SMILES) | cell viability [%]
O=C(O)C[C@@]1(O)C[C@@H](CCCCCCc2ccc(Cl)cc2Cl)OC1=O | 112
O=C(NCCCCCCNC(=O)ONC1=CCCCC1)ONC1=CCCCC1 | 94.6
O=C(C1CC1)N1CC[C@@H](C=C2NNC(=O)N2c2ccc(-c3ccc4occc4c3)cc2)C1 | 58.3
CCCCCCCCCCCC(=O)c1c(O)c(C(=O)CCCCCCCCCCC)c(O)c(C2CC(c3ccc(O)cc3)Oc3cc(O)ccc32)c1O (stereo not given) | 102
NC(=O)c1cccc(-c2cccc(OC(=O)NC3CCCCC3)c2)c1 [URB-597] | 109
O=C1O[C@H]([C@@H](O)CO)C(O)=C1O [Vitamin C (ascorbate)] | 92.6

system: Mono-Mac-6; assay: as above; settings: 1 nM; 72 h
Method in brief: as §1

Structure (SMILES) | cell viability [%]
O=C(O)C[C@@]1(O)C[C@@H](CCCCCCc2ccc(Cl)cc2Cl)OC1=O | 96.3
O=C(NCCCCCCNC(=O)ONC1=CCCCC1)ONC1=CCCCC1 | 90.6
O=C(C1CC1)N1CC[C@@H](C=C2NNC(=O)N2c2ccc(-c3ccc4occc4c3)cc2)C1 | 94.7
CCCCCCCCCCCC(=O)c1c(O)c(C(=O)CCCCCCCCCCC)c(O)c(C2CC(c3ccc(O)cc3)Oc3cc(O)ccc32)c1O (stereo not given) | 86.1
NC(=O)c1cccc(-c2cccc(OC(=O)NC3CCCCC3)c2)c1 [URB-597] | 102
O=C1O[C@H]([C@@H](O)CO)C(O)=C1O [Vitamin C (ascorbate)] | 103

same assay, conditions: 10 nM; 72 h

Structure (SMILES) | cell viability [%]
O=C(O)C[C@@]1(O)C[C@@H](CCCCCCc2ccc(Cl)cc2Cl)OC1=O | 111
O=C(NCCCCCCNC(=O)ONC1=CCCCC1)ONC1=CCCCC1 | 110
O=C(C1CC1)N1CC[C@@H](C=C2NNC(=O)N2c2ccc(-c3ccc4occc4c3)cc2)C1 | 91.2
CCCCCCCCCCCC(=O)c1c(O)c(C(=O)CCCCCCCCCCC)c(O)c(C2CC(c3ccc(O)cc3)Oc3cc(O)ccc32)c1O (stereo not given) | 112
NC(=O)c1cccc(-c2cccc(OC(=O)NC3CCCCC3)c2)c1 [URB-597] | 99.6
O=C1O[C@H]([C@@H](O)CO)C(O)=C1O [Vitamin C (ascorbate)] | 109

same assay, conditions: 100 nM; 72 h

Structure (SMILES) | cell viability [%]
O=C(O)C[C@@]1(O)C[C@@H](CCCCCCc2ccc(Cl)cc2Cl)OC1=O | 102
O=C(NCCCCCCNC(=O)ONC1=CCCCC1)ONC1=CCCCC1 | 103
O=C(C1CC1)N1CC[C@@H](C=C2NNC(=O)N2c2ccc(-c3ccc4occc4c3)cc2)C1 | 90
CCCCCCCCCCCC(=O)c1c(O)c(C(=O)CCCCCCCCCCC)c(O)c(C2CC(c3ccc(O)cc3)Oc3cc(O)ccc32)c1O (stereo not given) | 106
NC(=O)c1cccc(-c2cccc(OC(=O)NC3CCCCC3)c2)c1 [URB-597] | 97.2
O=C1O[C@H]([C@@H](O)CO)C(O)=C1O [Vitamin C (ascorbate)] | 98.8

same assay, conditions: 1000 nM; 72 h

Structure (SMILES) | cell viability [%]
O=C(O)C[C@@]1(O)C[C@@H](CCCCCCc2ccc(Cl)cc2Cl)OC1=O | 92.8
O=C(NCCCCCCNC(=O)ONC1=CCCCC1)ONC1=CCCCC1 | 98.8
O=C(C1CC1)N1CC[C@@H](C=C2NNC(=O)N2c2ccc(-c3ccc4occc4c3)cc2)C1 | 88
CCCCCCCCCCCC(=O)c1c(O)c(C(=O)CCCCCCCCCCC)c(O)c(C2CC(c3ccc(O)cc3)Oc3cc(O)ccc32)c1O (stereo not given) | 103
NC(=O)c1cccc(-c2cccc(OC(=O)NC3CCCCC3)c2)c1 [URB-597] | 117
O=C1O[C@H]([C@@H](O)CO)C(O)=C1O [Vitamin C (ascorbate)] | 101

same assay, conditions: 10000 nM; 72 h

Structure (SMILES) | cell viability [%]
O=C(O)C[C@@]1(O)C[C@@H](CCCCCCc2ccc(Cl)cc2Cl)OC1=O | 96.3
O=C(NCCCCCCNC(=O)ONC1=CCCCC1)ONC1=CCCCC1 | 102
O=C(C1CC1)N1CC[C@@H](C=C2NNC(=O)N2c2ccc(-c3ccc4occc4c3)cc2)C1 | 64.9
CCCCCCCCCCCC(=O)c1c(O)c(C(=O)CCCCCCCCCCC)c(O)c(C2CC(c3ccc(O)cc3)Oc3cc(O)ccc32)c1O (stereo not given) | 91.6
NC(=O)c1cccc(-c2cccc(OC(=O)NC3CCCCC3)c2)c1 [URB-597] | 123
O=C1O[C@H]([C@@H](O)CO)C(O)=C1O [Vitamin C (ascorbate)] | 108

system: HEL; assay: as above; settings: 1 nM; 72 h
Method in brief: as §1

Structure (SMILES) | cell viability [%]
O=C(O)C[C@@]1(O)C[C@@H](CCCCCCc2ccc(Cl)cc2Cl)OC1=O | 110
O=C(NCCCCCCNC(=O)ONC1=CCCCC1)ONC1=CCCCC1 | 90.8
O=C(C1CC1)N1CC[C@@H](C=C2NNC(=O)N2c2ccc(-c3ccc4occc4c3)cc2)C1 | 106
CCCCCCCCCCCC(=O)c1c(O)c(C(=O)CCCCCCCCCCC)c(O)c(C2CC(c3ccc(O)cc3)Oc3cc(O)ccc32)c1O (stereo not given) | 108
NC(=O)c1cccc(-c2cccc(OC(=O)NC3CCCCC3)c2)c1 [URB-597] | 102
O=C1O[C@H]([C@@H](O)CO)C(O)=C1O [Vitamin C (ascorbate)] | 103

same assay, conditions: 10 nM; 72 h

Structure (SMILES) | cell viability [%]
O=C(O)C[C@@]1(O)C[C@@H](CCCCCCc2ccc(Cl)cc2Cl)OC1=O | 118
O=C(NCCCCCCNC(=O)ONC1=CCCCC1)ONC1=CCCCC1 | 104
O=C(C1CC1)N1CC[C@@H](C=C2NNC(=O)N2c2ccc(-c3ccc4occc4c3)cc2)C1 | 90.5
CCCCCCCCCCCC(=O)c1c(O)c(C(=O)CCCCCCCCCCC)c(O)c(C2CC(c3ccc(O)cc3)Oc3cc(O)ccc32)c1O (stereo not given) | 97.8
NC(=O)c1cccc(-c2cccc(OC(=O)NC3CCCCC3)c2)c1 [URB-597] | 104
O=C1O[C@H]([C@@H](O)CO)C(O)=C1O [Vitamin C (ascorbate)] | 106

same assay, conditions: 100 nM; 72 h

Structure (SMILES) | cell viability [%]
O=C(O)C[C@@]1(O)C[C@@H](CCCCCCc2ccc(Cl)cc2Cl)OC1=O | 99.2
O=C(NCCCCCCNC(=O)ONC1=CCCCC1)ONC1=CCCCC1 | 117
